System: 677734-321-R-J1-PDC complex spheroid viability
Experiment: Anticancer human tumor 677734-321-R-J1-PDC patient-derived soft tissue sarcoma cell line growth inhibition [POLQ]
Details: for IC50: curve of first compound; for viability, T/C: stronger effect = lower value; active means viability on the fitted dose curve at most 10% of control; inactive means the rest
Procedure, shortened: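 Patient-derived tumour cells were co-cultured with HUVEC and mesenchymal stem cells as multicellular spheroids at 37 °C. They were treated with POLQ inhibitors (novobiocin, ART-558, RP6685) alone or combined with other agents. Top concentrations were at or near clinical Cmax (otherwise 10 microM; SN-38 at 1 microM), decreasing in half-log steps.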

[1] = second compound 0.0316 µM, first compound 0.00316 µM
[2] = second compound 0.0316 µM, first compound 0.01 µM
[3] = second compound 0.0316 µM, first compound 0.0316 µM
[4] = second compound 0.0316 µM, first compound 0.1 µM
[5] = second compound 0.0316 µM, first compound 0.316 µM
[6] = second compound 0.0316 µM, first compound 1 µM
[7] = second compound 0.1 µM, first compound 0.00316 µM
[8] = second compound 0.1 µM, first compound 0.01 µM
[9] = second compound 0.1 µM, first compound 0.0316 µM
[10] = second compound 0.1 µM, first compound 0.1 µM
[11] = second compound 0.1 µM, first compound 0.316 µM
[12] = second compound 0.1 µM, first compound 1 µM
[13] = second compound 0.316 µM, first compound 0.00316 µM
[14] = second compound 0.316 µM, first compound 0.01 µM
[15] = second compound 0.316 µM, first compound 0.0316 µM
[16] = second compound 0.316 µM, first compound 0.1 µM
[17] = second compound 0.316 µM, first compound 0.316 µM
[18] = second compound 0.316 µM, first compound 1 µM
[19] = second compound 1 µM, first compound 0.00316 µM
[20] = second compound 1 µM, first compound 0.01 µM
[21] = second compound 1 µM, first compound 0.0316 µM
[22] = second compound 1 µM, first compound 0.1 µM
[23] = second compound 1 µM, first compound 0.316 µM
[24] = second compound 1 µM, first compound 1 µM
[25] = second compound 3.16 µM, first compound 0.00316 µM
[26] = second compound 3.16 µM, first compound 0.01 µM
[27] = second compound 3.16 µM, first compound 0.0316 µM
[28] = second compound 3.16 µM, first compound 0.1 µM
[29] = second compound 3.16 µM, first compound 0.316 µM
[30] = second compound 3.16 µM, first compound 1 µM
[31] = second compound 10 µM, first compound 0.00316 µM
[32] = second compound 10 µM, first compound 0.01 µM
[33] = second compound 10 µM, first compound 0.0316 µM
[34] = second compound 10 µM, first compound 0.1 µM
[35] = second compound 10 µM, first compound 0.316 µM
[36] = second compound 10 µM, first compound 1 µM
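Further: spheroids exposed to compounds for one week.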
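Wherever viability, T/C is given: 100% = vehicle DMSO treated spheroids.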

C=CCn1c(=O)c2cnc(Nc3ccc(N4CCN(C)CC4)cc3)nc2n1-c1cccc(C(C)(C)O)n1 + Nc1ccc(C#CCN(C(=O)Cc2ncc(C(F)(F)F)cc2C(F)(F)F)c2ccc(F)cc2)nn1
inactive: viability, T/C [1] 114% | viability, T/C [2] 107% | viability, T/C [3] 102% | viability, T/C [4] 102% | viability, T/C [5] 84.1% | viability, T/C [6] 36.7% | viability, T/C [7] 107% | viability, T/C [8] 111% | viability, T/C [9] 122% | viability, T/C [10] 97.2% | viability, T/C [11] 80.8% | viability, T/C [12] 35.1% | viability, T/C [13] 119% | viability, T/C [14] 102% | viability, T/C [15] 110% | viability, T/C [16] 104% | viability, T/C [17] 81.1% | viability, T/C [18] 32.5% | viability, T/C [19] 106% | viability, T/C [20] 102% | viability, T/C [21] 112% | viability, T/C [22] 93.2% | viability, T/C [23] 85.4% | viability, T/C [24] 29.3% | viability, T/C [25] 114% | viability, T/C [26] 96.3% | viability, T/C [27] 103% | viability, T/C [28] 104% | viability, T/C [29] 59% | viability, T/C [30] 35.9% | viability, T/C [31] 116% | viability, T/C [32] 113% | viability, T/C [33] 108% | viability, T/C [34] 97.1% | viability, T/C [35] 74.6% | viability, T/C [36] 44.2%
644 nM: IC50 (second compound 1 µM)
664 nM: IC50 (second compound 0.316 µM)
805 nM: IC50 (second compound 10 µM)
727 nM: IC50 (second compound 0.0316 µM)
682 nM: IC50 (second compound 0.1 µM)
496 nM: IC50 (second compound 3.16 µM)

CCc1c2c(nc3ccc(O)cc13)-c1cc3c(c(=O)n1C2)COC(=O)[C@]3(O)CC + Nc1ccc(C#CCN(C(=O)Cc2ncc(C(F)(F)F)cc2C(F)(F)F)c2ccc(F)cc2)nn1
< 3.16 nM: IC50 (second compound 0.0316 µM) | IC50 (second compound 0.1 µM) | IC50 (second compound 0.316 µM) | IC50 (second compound 1 µM) | IC50 (second compound 3.16 µM) | IC50 (second compound 10 µM)
inactive: viability, T/C [1] 22.2% | viability, T/C [2] 10.8% | viability, T/C [7] 19.4% | viability, T/C [8] 9.07% | viability, T/C [13] 24.3% | viability, T/C [14] 10.8% | viability, T/C [19] 22.5% | viability, T/C [20] 10.8% | viability, T/C [25] 22.5% | viability, T/C [31] 25.9% | viability, T/C [32] 11%
active: viability, T/C [3] 5.47% | viability, T/C [4] 4.82% | viability, T/C [5] 4.02% | viability, T/C [6] 1.51% | viability, T/C [9] 6.31% | viability, T/C [10] 5.31% | viability, T/C [11] 3.85% | viability, T/C [12] 1.25% | viability, T/C [15] 5.47% | viability, T/C [16] 4.33% | viability, T/C [17] 3.5% | viability, T/C [18] 1.28% | viability, T/C [21] 5.38% | viability, T/C [22] 5.22% | viability, T/C [23] 4.16% | viability, T/C [24] 1.16% | viability, T/C [26] 8.9% | viability, T/C [27] 5.24% | viability, T/C [28] 4.43% | viability, T/C [29] 5.24% | viability, T/C [30] 1.3% | viability, T/C [33] 6.72% | viability, T/C [34] 4.78% | viability, T/C [35] 3.27% | viability, T/C [36] 1.35%

COc1cccc(OCCCN)c1-c1cc(Nc2cnc(C#N)cn2)n[nH]1 + Nc1ccc(C#CCN(C(=O)Cc2ncc(C(F)(F)F)cc2C(F)(F)F)c2ccc(F)cc2)nn1
6.15 nM: IC50 (second compound 1 µM)
3.71 nM: IC50 (second compound 10 µM)
inactive: viability, T/C [1] 101% | viability, T/C [2] 13.8% | viability, T/C [7] 67.2% | viability, T/C [8] 14.3% | viability, T/C [13] 77% | viability, T/C [14] 17.7% | viability, T/C [19] 83.6% | viability, T/C [20] 25.5% | viability, T/C [25] 72.7% | viability, T/C [26] 13.8% | viability, T/C [31] 56.6%
active: viability, T/C [3] 5.82% | viability, T/C [4] 6.83% | viability, T/C [5] 7.28% | viability, T/C [6] 5.14% | viability, T/C [9] 6.58% | viability, T/C [10] 6.56% | viability, T/C [11] 8.96% | viability, T/C [12] 3.87% | viability, T/C [15] 5.86% | viability, T/C [16] 9.23% | viability, T/C [17] 6.18% | viability, T/C [18] 5.17% | viability, T/C [21] 6% | viability, T/C [22] 6.97% | viability, T/C [23] 6.56% | viability, T/C [24] 5.02% | viability, T/C [27] 9% | viability, T/C [28] 6.22% | viability, T/C [29] 7.97% | viability, T/C [30] 5.64% | viability, T/C [32] 9.16% | viability, T/C [33] 6.91% | viability, T/C [34] 7.72% | viability, T/C [35] 6.82% | viability, T/C [36] 5.03%
4.93 nM: IC50 (second compound 3.16 µM)
6.21 nM: IC50 (second compound 0.0316 µM)
4.6 nM: IC50 (second compound 0.1 µM)
5.33 nM: IC50 (second compound 0.316 µM)

O=C(c1cc(Cc2n[nH]c(=O)c3ccccc23)ccc1F)N1CCN(C(=O)C2CC2)CC1 + Nc1ccc(C#CCN(C(=O)Cc2ncc(C(F)(F)F)cc2C(F)(F)F)c2ccc(F)cc2)nn1
inactive: viability, T/C [3] 97% | viability, T/C [4] 122% | viability, T/C [5] 101% | viability, T/C [6] 105% | viability, T/C (second compound 0.0316 µM, first compound 3.16 µM) 88.1% | viability, T/C (second compound 0.0316 µM, first compound 10 µM) 63.3% | viability, T/C [9] 110% | viability, T/C [10] 102% | viability, T/C [11] 98.6% | viability, T/C [12] 110% | viability, T/C (second compound 0.1 µM, first compound 3.16 µM) 83.8% | viability, T/C (second compound 0.1 µM, first compound 10 µM) 71.2% | viability, T/C [15] 110% | viability, T/C [16] 116% | viability, T/C [17] 104% | viability, T/C [18] 93.2% | viability, T/C (second compound 0.316 µM, first compound 3.16 µM) 96.1% | viability, T/C (second compound 0.316 µM, first compound 10 µM) 68.8% | viability, T/C [21] 109% | viability, T/C [22] 108% | viability, T/C [23] 96.5% | viability, T/C [24] 93% | viability, T/C (second compound 1 µM, first compound 3.16 µM) 92.7% | viability, T/C (second compound 1 µM, first compound 10 µM) 50.3% | viability, T/C [27] 123% | viability, T/C [28] 110% | viability, T/C [29] 89.4% | viability, T/C [30] 92.8% | viability, T/C (second compound 3.16 µM, first compound 3.16 µM) 90.9% | viability, T/C (second compound 3.16 µM, first compound 10 µM) 65.3% | viability, T/C [33] 109% | viability, T/C [34] 103% | viability, T/C [35] 103% | viability, T/C [36] 105% | viability, T/C (second compound 10 µM, first compound 3.16 µM) 91.9% | viability, T/C (second compound 10 µM, first compound 10 µM) 66.8%
> 10000 nM: IC50 (second compound 0.0316 µM) | IC50 (second compound 0.1 µM) | IC50 (second compound 0.316 µM) | IC50 (second compound 1 µM) | IC50 (second compound 3.16 µM) | IC50 (second compound 10 µM)
